pIC50: −log10 of the molar value.
System: 276233-004-R-J1-PDC KRAS spheroids with HUVEC/MSC, viability
Experiment: Anticancer human tumor 276233-004-R-J1-PDC patient-derived colon adenocarcinoma cell line growth inhibition [KRAS2]
Details: for pIC50: curve of first compound; for viability, T/C: stronger effect = lower value
Text: Multicellular complex tumor spheroid response to RAS pathway inhibitors in combination with a targeted agents in patient-derived cell lines with oncogenic KRAS variants from multiple cancer types
A high-throughput screen of multi-cell type tumor spheroids was designed to identify active combinations of targeted small molecules and KRAS pathway inhibitors. Complex spheroids include a stromal component modeled by human endothelial cells (HUVEC) and fibroblasts modeled by human mesenchymal stem cells (MSCs). The concentration ranges selected for each drug and investigational agent were based upon clinically achievable concentrations if the clinical Cmax of the agent was known.
Compounds. The drugs and investigational agents: BI-3406 (NSC825286), BAY-293 (NSC824723), batoprotafib (TNO155; NSC825523), sotorasib (AMG 510; NSC818433), MRTX1257 (NSC819558), elimusertib (BAY 1895344; NSC800525), molibresib (GSK525762; NSC774829), temuterkib (LY3214996; NSC803410), venetoclax (NSC766270), alisertib (NSC759677), olaparib (NSC753686), talazoparib (NSC767125), erdafitinib (NSC781556), ipatasertib (NSC767898), cabozantinib (NSC761068), nintedanib (NSC756659), abemaciclib (NSC768073), docetaxel (NSC628503), trametinib (NSC758246), and sapanisertib (NSC764658) were obtained from the National Cancer Institute (NCI) Developmental Therapeutics Program Chemical Repository. The FDA-approved anticancer drug set is available from the Developmental Therapeutics Program. […] The stock solutions were prepared in dimethyl sulfoxide (DMSO, Sigma-Aldrich, St. Louis, MO, cat. D2650) at 800-fold the tested concentration and stored at -70 degrees C prior to their use. All drugs and investigational agents were tested over a range starting from a high concentration at or near the clinical Cmax and decreasing in half-log increments. If the clinical Cmax for an agent had not been determined, the highest concentration tested was 10 microM.
Cell Culture. All cells were maintained in an incubator at 37 degrees C and 5% CO2 with 95% humidity. The PDC lines were cultured according to standard operating procedures established by the NCI PDMR (https://pdmr.cancer.gov/sops/default.htm). Briefly, all PDCs were thawed and cultured in Matrigel-coated flasks prepared with a working solution of 1X Ham's F-12 nutrient mix, without supplementation (Invitrogen, Waltham, MA, cat. 11765054), 100 U/mL penicillin-streptomycin (Invitrogen, cat. 15140122), and 2.5% Matrigel (Corning Inc., Corning, NY, cat. 354248) for the first three passages. All PDCs were cultured in complete DMEM/F-12 media containing advanced DMEM/F-12 (Invitrogen, cat. 12634028), 4.9% defined fetal bovine serum, heat inactivated (HyClone Laboratories Inc., Logan, UT, cat. SH30070.03HI), 389 ng/mL hydrocortisone (Sigma-Aldrich, cat. H4001), 9.7 ng/mL human EGF recombinant protein (Invitrogen, cat. PHG0313), 23.4 microg/mL adenine (Sigma-Aldrich, cat. A2786), 97.3 U/mL penicillin-streptomycin (Invitrogen, cat. 15140122), 1.9 mM L-glutamine (Invitrogen, cat. 25030081), and 9.7 microM Y-27632 dihydrochloride (Tocris Bioscience, Bristol, United Kingdom, cat. 1254). The PDCs were cultured in complete DMEM/F12 media without 9.7 microM Y-27632 dihydrochloride for at least two passages prior to the screen. The established cell line HOP-62 was cultured in RPMI 1640 medium, HEPES (Invitrogen, cat. 22400105) with 10% defined fetal bovine serum (HyClone Laboratories Inc., cat. SH30070.03) and 2 mM L-glutamine (Invitrogen, cat. 25030081). The pooled donor HUVEC were cultured in endothelial cell growth medium 2 (PromoCell, Heidelberg, Germany, cat. C-22011) and the hMSC were cultured in mesenchymal stem cell growth medium 2 (PromoCell, cat. C-28009). For all experiments, HUVEC and hMSC were used at passages </=5, while the malignant cell lines were used at passages </=15. […]

[1] = second compound 0.1 µM, first compound 0.0316 µM
[2] = second compound 0.1 µM, first compound 0.1 µM
[3] = second compound 0.316 µM, first compound 0.0316 µM
[4] = second compound 0.316 µM, first compound 0.1 µM
[5] = second compound 1 µM, first compound 0.0316 µM
[6] = second compound 1 µM, first compound 0.1 µM
[7] = second compound 3.16 µM, first compound 0.0316 µM
[8] = second compound 3.16 µM, first compound 0.1 µM
[9] = second compound 10 µM, first compound 0.0316 µM
[10] = second compound 10 µM, first compound 0.1 µM
[11] = second compound 0.1 µM, first compound 0.316 µM
[12] = second compound 0.1 µM, first compound 1 µM
[13] = second compound 0.1 µM, first compound 3.16 µM
[14] = second compound 0.1 µM, first compound 10 µM
[15] = second compound 0.316 µM, first compound 0.316 µM
[16] = second compound 0.316 µM, first compound 1 µM
[17] = second compound 0.316 µM, first compound 3.16 µM
[18] = second compound 0.316 µM, first compound 10 µM
[19] = second compound 1 µM, first compound 0.316 µM
[20] = second compound 1 µM, first compound 1 µM
[21] = second compound 1 µM, first compound 3.16 µM
[22] = second compound 1 µM, first compound 10 µM
[23] = second compound 3.16 µM, first compound 0.316 µM
[24] = second compound 3.16 µM, first compound 1 µM
[25] = second compound 3.16 µM, first compound 3.16 µM
[26] = second compound 3.16 µM, first compound 10 µM
[27] = second compound 10 µM, first compound 0.316 µM
[28] = second compound 10 µM, first compound 1 µM
[29] = second compound 10 µM, first compound 3.16 µM
[30] = second compound 10 µM, first compound 10 µM
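Note: cells exposed to agents for seven days before viability read.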
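Throughout, for viability, T/C: 100% = DMSO vehicle control wells and lower values mean fewer viable cells.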

Compound	pIC50 (second compound 0.1 µM)	pIC50 (second compound 0.316 µM)	pIC50 (second compound 1 µM)	pIC50 (second compound 3.16 µM)	pIC50 (second compound 10 µM)	viability, T/C [1]	viability, T/C [2]	viability, T/C [3]	viability, T/C [4]	viability, T/C [5]	viability, T/C [6]	viability, T/C [7]	viability, T/C [8]	viability, T/C [9]	viability, T/C [10]	viability, T/C [11]	viability, T/C [12]	viability, T/C [13]	viability, T/C [14]	viability, T/C [15]	further results
CC(C)n1nc(-c2ccc3oc(N)nc3c2)c2c(N)ncnc21 + CNCc1ccccc1-c1csc(C(C)Nc2nc(C)nc3cc(OC)c(OC)cc23)c1	7.37	7.05	8.17	> 9.50	> 9.50	53.2%	44.4%	45%	54.5%	43.2%	51.6%	1.9%	0.88%	0.21%	0.37%	–	–	–	–	–	viability, T/C (second compound 0.1 µM, first compound 0.000316 µM): 88.7%; viability, T/C (second compound 0.1 µM, first compound 0.001 µM): 76.2%; viability, T/C (second compound 0.1 µM, first compound 0.00316 µM): 66.1%; viability, T/C (second compound 0.1 µM, first compound 0.01 µM): 59.5%; viability, T/C (second compound 0.316 µM, first compound 0.000316 µM): 82.3%; viability, T/C (second compound 0.316 µM, first compound 0.001 µM): 70.7%; viability, T/C (second compound 0.316 µM, first compound 0.00316 µM): 66.2%; viability, T/C (second compound 0.316 µM, first compound 0.01 µM): 55.5%; viability, T/C (second compound 1 µM, first compound 0.000316 µM): 57.9%; viability, T/C (second compound 1 µM, first compound 0.001 µM): 63.7%; viability, T/C (second compound 1 µM, first compound 0.00316 µM): 60.5%; viability, T/C (second compound 1 µM, first compound 0.01 µM): 39.6%; viability, T/C (second compound 3.16 µM, first compound 0.000316 µM): 0.56%; viability, T/C (second compound 3.16 µM, first compound 0.001 µM): 0.43%; viability, T/C (second compound 3.16 µM, first compound 0.00316 µM): 0.72%; viability, T/C (second compound 3.16 µM, first compound 0.01 µM): 0.43%; viability, T/C (second compound 10 µM, first compound 0.000316 µM): 0.94%; viability, T/C (second compound 10 µM, first compound 0.001 µM): 0.17%; viability, T/C (second compound 10 µM, first compound 0.00316 µM): 1.02%; viability, T/C (second compound 10 µM, first compound 0.01 µM): 0.26%
CC(C)NCC(C(=O)N1CCN(c2ncnc3c2C(C)CC3O)CC1)c1ccc(Cl)cc1 (stereo not given) + CNCc1ccccc1-c1csc(C(C)Nc2nc(C)nc3cc(OC)c(OC)cc23)c1	< 5.00	< 5.00	6.25	> 7.50	> 7.50	77.2%	69.9%	88.3%	96.1%	66.9%	50.1%	0.57%	0.54%	0.2%	0.22%	79.5%	78.8%	66%	53.6%	76.4%	viability, T/C [16]: 70.6%; viability, T/C [17]: 70.4%; viability, T/C [18]: 58.6%; viability, T/C [19]: 78.5%; viability, T/C [20]: 34.9%; viability, T/C [21]: 23.9%; viability, T/C [22]: 38.2%; viability, T/C [23]: 0.43%; viability, T/C [24]: 0.58%; viability, T/C [25]: 0.56%; viability, T/C [26]: 0.49%; viability, T/C [27]: 0.18%; viability, T/C [28]: 0.2%; viability, T/C [29]: 1.04%; viability, T/C [30]: 0.31%
COc1cc(Nc2ncc3c(n2)-c2ccc(Cl)cc2C(c2c(F)cccc2OC)=NC3)ccc1C(=O)O + COc1cc2nc(C)nc(NC(C)c3cc(N)cc(C(F)(F)F)c3)c2cc1OC1CCOC1	< 5.00	< 5.00	< 5.00	< 5.00	> 7.50	79.9%	78.9%	83.3%	69.9%	91.7%	67.4%	70%	60.4%	29.1%	37.9%	74.3%	68%	61.6%	57.1%	70.9%	viability, T/C [16]: 69.5%; viability, T/C [17]: 67.2%; viability, T/C [18]: 54.6%; viability, T/C [19]: 63.5%; viability, T/C [20]: 68%; viability, T/C [21]: 58.4%; viability, T/C [22]: 55.2%; viability, T/C [23]: 56.6%; viability, T/C [24]: 54.1%; viability, T/C [25]: 74.6%; viability, T/C [26]: 57.4%; viability, T/C [27]: 30.9%; viability, T/C [28]: 21.2%; viability, T/C [29]: 31.4%; viability, T/C [30]: 17.6%

From PubChem BioAssay AID1963873 (Molecular Pharmacology Branch, DTP, NCI, 2024)
